Measured values taken from patent US20230255943A1, “MMP-9 AND MMP-12 INHIBITION FOR TREATING SPINAL CORD INJURY OR RELATED INJURY TO NEUROLOGICAL TISSUE” (The University of Birmingham, priority 2020, published 2023).

Columns and labels:
[1] = tested on: mice with DC crush injury; experiment: Electrophysiology: compound action potentials (CAP) across DC lesion in mice; format: in vivo, mouse
Experimental: Compound action potentials (CAP) were recorded at 6 w weeks after DC injury and treatment, as described previously—for example B. C. Hains, C. Y. Saab, A. C. Lo, S. G. Waxman, Sodium channel blockade with phenytoin protects spinal cord axons, enhances axonal conduction, and improves functional motor recovery after contusion SCI. Exp Neurol 188, 365-377 (2004).
(§1) Briefly, the experimenter was masked to the treatment status of the animals and the CAP amplitude was calculated between the negative deflection after the stimulus artifact and the next peak of the wave. CAP area was also calculated by rectifying the CAP component (full-wave rectification) and measuring its area. To confirm our recordings and that a CAP could not be recorded, the dorsal half of the spinal cord was transected after each experiment between the stimulating and recording electrodes.

[2] = tested on: mice with DC crush injury; experiment: Immunohistochemistry of scar tissue (laminin, Sema-3A, CS-56) at lesion site; format: in vivo, mouse; details: for attenuation of laminin immunoreactivity (scar tissue): 4 weeks after DC injury
Text: After killing animals by exposure to rising concentrations of CO2, mice were intracardially perfused with 4% formaldehyde (TAAB Laboratories, Berkshire, UK) in 0.1M phosphate buffered saline (PBS). The lesion site+5 mm either side were dissected out, post-fixed in 4% formaldehyde and subjected to a graded series of sucrose solutions for cryoprotection. Spinal cords were blocked in OCT mounting compound (TAAB laboratories), sectioned longitudinally at 15 μm-thick using a cryostat (Brights Instruments, Huntingdon, UK) before being collected on charged glass slides (ThermoFisher Scientific, Loughborough, UK) and kept at −20° C. until required. Slides were numbered consecutively and sections from the middle of the lesion site were chosen for all immunohistochemical analyses, as described by previously (Surey S, Berry M, Logan A, Bicknell R, Ahmed Z. Differential cavitation, angiogenesis and wound-healing responses in injured mouse and rat spinal cords. Neuroscience 2014; 275: 62-80).
Fluorescent immunohistochemistry was performed as described previously (S. Surey, M. Berry, A. Logan, R. Bicknell, Z. Ahmed, Differential cavitation, angiogenesis and wound-healing responses in injured mouse and rat spinal cords. Neuroscience 275, 62-80 (2014)). […] Laminin was detected at 4 weeks after DC injury and treatment using a rabbit polyclonal anti-laminin primary antibody (ab11575; 1:400 dilution, Abcam). Macrophages were detected with a rabbit polyclonal anti-CD68 antibody (ab1525212; 1:500 dilution, Abcam); microglia were detected using a rabbit polyclonal antibody to CD11b (ab128797, 1:500 dilution, Abcam); GFAP was detected using a polyclonal anti-GFAP antibody (SAB5700611, 1:400 dilution, Sigma) were all detected at 10 days after DC injury and treatment. Semaphorin-3A (Sema-3A) and chondroitin sulphate proteoglycan (CSPG) was detected using monoclonal anti-CS-56 antibody (C8035; 1:200 dilution, Sigma) at 7 days after injury. […] CTB labelled axons in the mouse were detected using a goat polyclonal anti-CTB antibody (#703; 1:1000 dilution, List Biological Labs) at 6 weeks after DC injury.
All analyses were performed by investigators masked to the experimental groups. Relative fluorescent staining intensity was calculated by image analysis as described previously (Surey S, Berry M, Logan A, Bicknell R, Ahmed Z. Differential cavitation, angiogenesis and wound-healing responses in injured mouse and rat spinal cords. Neuroscience 2014; 275: 62-80). Briefly, photomicrographs taken at 5× magnification using the same standardized exposure settings throughout for each antibody were thresholded and the mean integrated intensity of pixels/unit area for each antibody was recorded Using ImageJ (NIH, USA) from n=12 mice/antibody.

[3] = tested on: mice with DC crush injury; experiment: Horizontal ladder test (locomotor function) after DC injury in mice; format: in vivo, mouse
Experimental: Functional testing after DC lesion and treatment was carried out as described previously (N. D. Fagoe, C. L. Attwell, R. Eggers, L. Tuinenbreijer, D. Kouwenhoven, J. Verhaagen, M. R. Mason, Evaluation of Five Tests for Sensitivity to Functional Deficits following Cervical or Thoracic Dorsal Column Transection in the Rat. PLoS One 11, e0150141 (2016)).
Briefly, animals (n=18/group) were first trained to master traversing a horizontal ladder for 1 w before functional testing. Baseline parameters were established by performing tests at 2-3d before injury. Animals were then tested at 2d, 1 w, 2 w, 3 w, 4 w, 5 w and 6 w after DC injury+treatment. Experiments were performed by an observer masked to the treatment conditions in the same order and time of day with each test performed for 3 individual trials.
Horizontal ladder test: This tests the animals locomotor function and is performed on a 0.9-meter-long horizontal ladder with a diameter of 15.5 cm and randomly adjusted rungs with variable gaps of 3.5-5.0 cm. Animals were assessed traversing the ladder and the left and right rear paw slips were recorded along with the total number of steps and the mean error rate as: the number of slips/total number of steps.

MMP-12 = biological target: T1, MMP-12 (Rattus norvegicus, UniProt Q63341); experiment: MMP-12 activity after DC injury in rats; format: in vivo; details: oral
T1 construct: from tissue; host or cells: Sprague-Dawley rat spinal cord lesion site
T1 sequence (Q63341 102-465): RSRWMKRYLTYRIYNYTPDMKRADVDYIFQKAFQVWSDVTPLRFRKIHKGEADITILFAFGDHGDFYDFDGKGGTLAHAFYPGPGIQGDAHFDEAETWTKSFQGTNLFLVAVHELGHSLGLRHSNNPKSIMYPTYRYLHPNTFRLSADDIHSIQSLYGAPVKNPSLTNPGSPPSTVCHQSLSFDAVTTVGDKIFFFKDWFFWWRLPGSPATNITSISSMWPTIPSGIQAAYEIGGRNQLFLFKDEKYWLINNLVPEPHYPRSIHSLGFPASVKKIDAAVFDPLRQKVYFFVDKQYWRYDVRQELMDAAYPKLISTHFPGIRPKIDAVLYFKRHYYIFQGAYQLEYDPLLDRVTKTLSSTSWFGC
Experimental: (§2) The efficacy of oral AZD3342 in the DC injury model in adult Sprague-Dawley rat was also assessed. Animals were divided into 6 groups: (1), Sham (control); (2), DC crush injury+Vehicle; (3), DC crush injury+15 mg/kg AZD3342; (4), DC crush injury+75 mg/kg […]; (5), DC crush injury+375 mg/kg AZD3342; and (6), DC crush injury+Melatonin. Animals were dosed twice daily with oral AZD3342 or vehicle with the experimenters masked to the treatment conditions. These experiments were performed with n=6 rats/group and repeated on 2-3 independent occasions (total n=12-18 rats/group/test).
The lesion site+3 mm either side for mouse (DC and CC SCI) and lesion site+5 mm either side for rat was dissected (n=6 mice/rats/group, 2 independent repeats, total n=12 mice/rats/group) and rapidly frozen in liquid N2 and stored at −80° C. until required. The enzymatic activity of MMP-9 and MMP-12 was determined in 96-well plates using the SensoLyte 520 MMP-9 and MMP-12 fluorimetric assay kit, according to the manufacturer's instructions (AnaSpec, Fremont, Calif., USA). Fluorescence intensity was measured using a Synergy H1 microplate reader (BioTek UK, Swindon, UK) at Ex/Em=490/520 nm.

[4] = tested on: rats with DC crush injury; experiment: CAP traces after DC injury in rats; format: in vivo; details: rat DC injury, 6 weeks
Experimental: as §2
Compound action potentials (CAP) were recorded at 6 w weeks after DC injury and treatment, as described previously—for example B. C. Hains, C. Y. Saab, A. C. […]
as §1

[5] = optimal doses, 24 h delay vs immediate
[6] = immediate or delayed by 24 h, 7 days (8 days delayed group)

| SMILES | dorsum cord potentials, CAP amplitudes, CAP areas, 24-h delayed treatment [1, 5] | CAP area relative to Sham-treated controls ([1]; oral) | CAP wave ([1]; oral 200 mg/kg, 6 weeks after DC injury) | mean CAP amplitude ([1]; oral, all stimulation intensities) | CAP area ([1]; oral, sham 0.65±0.02, DC+vehicle 0.06±0.02) | attenuation of laminin immunoreactivity (scar tissue) ([2]; 24 hour delayed) | attenuation of CS-56 immunoreactivity at the lesion site [2, 6] | attenuation of Sema-3A immunoreactivity at the lesion site [2, 6] | attenuation of laminin immunoreactivity (scar tissue) ([2]; immediately after injury) | locomotor function, 24-h delayed treatment [3, 5] | improvement in locomotor function ([3]; oral) | mean error ratio, ladder crossing test ([3]; oral, by 2 weeks after injury) | MMP-12 activity (MMP-12) | electrophysiological CAP traces [4] |
| --- | --- | --- | --- | --- | --- | --- | --- | --- | --- | --- | --- | --- | --- | --- |
| C[C@]1(CS(=O)(=O)N2CC=C(C#Cc3cnc(C4CC4)nc3)CC2)NC(=O)NC1=O [AZD1236] | equally as effective as immediate delivery | 80% | restored a significant CAP wave | significantly larger CAP amplitudes | 0.52±0.09 mV×ms | > 77% | > 81% | > 84% | > 80% | equally as effective as immediate delivery | 85% | indistinguishable from sham-treated animals |  |  |
| C[C@]1(CS(=O)(=O)N2CCC(Oc3ccc(Cl)cn3)CC2)NC(=O)NC1=O [AZD3342, (5S)-5-[4-(5-chloro-pyridin-2-yloxy)-piperidine-1-sulfonylmethyl]-5-methylimidazolidine-2,4-dione] |  |  |  |  |  |  |  |  |  |  |  |  | significantly suppresses | significantly improved |
